Results as given in patent US5137811A, “Method for diagnosing periodontal diseases with a substrate specific for aminopeptidase activity of periodontopathic bacteria” (Sunstar Kabushiki Kaisha, priority 1986, dated 1992).
Where a SMILES comes first, the peptide text is derived from it. The star is where a group is joined. βNA = c1ccc2cc(N*)ccc2c1; Bz = O=C(c1ccccc1)*

How the values were obtained:
[1] = tested on: periodontopathic bacteria specific aminopeptidase activity; assay: Hydrolytic activity of saliva supernatant, substrates alone or in combination (Experiment 9); assay type: biochemical; conditions: 37° C. for 4 hours, Table 9
Experimental: A saliva mixture was collected from a group consisting of ten healthy subjects and centrifuged to obtain a supernatant. Likewise, centrifuged supernatants were obtained from a group of ten subjects with adult periodontitis and a group of four localized juvenile periodontitis. The supernatant was used as a specimen and its hydrolytic activity was determined according to the same manner as described in Experiment 4 except that the reaction was carried out at 37° C. for 4 hours. As the substrates, there were used N-carbobenzoxy-valyl-glycyl-arginine-p-nitrophenol (CxVGR-pNP), N-carbobenzoxy-valyl-glycylarginine-4-methoxy-2-naphthylamide (CxVGR-4NA) and N-carbobenzoxy-valyl-glycyl-arginine-β-naphthylamide (CxVGR-βNA). Color was developed by using lN sodium hydroxide for CxVGR-pNP and Fast Blue BB for CxVGR-4NA and CxVGR-βNA.
According to the same manner as described in Experiment 7, hydrolytic activity was tested by using N-carbobenzoxy-valyl-glycyl-arginine-β-naphthylamide (CxVGR-βNA), N-benzoyl-arginyl-glycyl-phenylalanyl-proline-β-naphthylamide (BzRGFP-βNA), N-carbobenzoxy-valyl-glycylarginine-p-nitrophenol (CxVGR-pNP) and N-benzoyl-arginylglycyl-phenylalanyl-proline-p-nitrophenol (BzRGFP-pNP) alone or in combination as the substrates.

B. gingivalis [2] = assay: Hydrolytic activity of cell suspension, substrates alone or in combination (Experiment 3); assay type: cell-based; conditions: five strains, Table 3
Experimental: (§1) The strains of Treponema were anaerobically cultivated using TYGVS media at 37° C. for 7 days, while other bacterial strains were cultivated using brain heart infusion broth at 37° C. for 48 to 72 hours. Each culture was diluted to obtain a bacterial cell suspension, the absorption at 660 nm of which was 1.0.
(§2) Substrate compounds for aminopeptidase enzyme having various color developing groups derived from β-naphthylamine were dissolved in 0.1M Tris-HCl buffer (pH 7.0) at the concentration of 0.2 mM to obtain substrate solutions.
(§3) To the substrate solution (1.5 ml) was added the above cell suspension (0.3 ml) and reacted at 37° C. for 60 minutes. After completion of the reaction, a coloring reagent [prepared by dissolving diazonium salt of Garnet GBC in 1M acetate buffer (containing 10% Tween 20, pH: 4.2) at the concentration of 0.5 mg/ml] was added and, after 15 minutes, the absorption at 525 nm was determined with a spectrophotometer.
(§4) On the basis of the average amount of released β-naphthylamine in each strain, the hydrolytic activity was expressed as follows: […]
(§5) According to the same manner as described in Experiment 1, periodontopathic bacteria specific aminopeptidase activity was tested by using four strains of Treponema denticola, five strains of B. gingivalis, four strains of Actinobacillus actinomycetemcomitans, two strains of Actinomyces israelli and three strains of Fusobacterium nucleatum. Abbreviations in Table 3 are the same as those in Tables 1 and 2. Hydrolytic activity "+++" means "40≤release amount<80 nmol/ml" and "++++" means "release amount≥80 nmol/ml".

Treponema denticola [3] = assay: as above; assay type: cell-based; conditions: four strains, Table 3
Experimental: as §1, §2, §3, §4, §5

Actinomyces israelli [4] = assay: as above; assay type: cell-based; conditions: two strains, Table 3
Experimental: as §1, §2, §3, §4, §5

[5] = tested on: Actinobacillus actinomycetemcomitans; assay: as above; assay type: cell-based; conditions: four strains, Table 3
Experimental: as §1, §2, §3, §4, §5

Fusobacterium nucleatum [6] = assay: as above; assay type: cell-based; conditions: three strains, Table 3
Experimental: as §1, §2, §3, §4, §5

[7] = tested on: periodontopathic bacteria specific aminopeptidase activity; assay: Hydrolytic activity of gingival crevicular fluid specimens, OD525 (Experiment 6); assay type: biochemical
Experimental: as §2, §3
Specimens of gingival crevicular fluid were collected with paper points from five subjects who were considered to be healthy from their clinical state, six subjects with gingivitis and six subjects with periodontitis. Each specimen was dispersed in Ringer's solution (1.5 ml), and the relative amount of spirochete to total bacteria: [formula] was determined with a phase contrast microscope. Further, the Ringer's solution (0.3 ml) was tested for hydrolytic activity using the substrate solution prepared in the same manner as described in Experiment 1. As substrates, there were used compounds of the formula [1], i.e., N-benzoylvalyl-glycyl-arginine-β-naphthylamide (BzVGR) and N-carbobenzoxy-valyl-glycyl-arginine-β-naphthylamide (CxVGR) were used.
According to the same manner as described in Experiment 4, hydrolytic activity was tested by using the compounds of the formulas and [2], i.e., glycyl-proline-βnaphthylamide (GP), N-benzoyl-arginyl-glycyl-phenylalanylproline-β-naphthylamide (BzRGFP), N-carbobenzoxy-valylglycyl-arginine-β-naphthylamide (CxVGR) and N-benzoylglycyl-arginine-β-naphthylamide (BzGR) alone or in combination. Hydrolytic activity was determined by measuring absorption at 525 nm (OD525) and expressed as follows.

B. intermedius = assay: Hydrolytic activity of cell suspension on aminopeptidase substrates (Experiment 2); assay type: cell-based; conditions: three strains, Table 2
Procedure, shortened: (§6)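 Treponema strains were cultured anaerobically in TYGVS for 7 days at 37° C.; the other bacteria grew in brain heart infusion broth for 48 to 72 hours. Each suspension, diluted to A660 1.0, hydrolysed 0.2 mM substrate over 60 minutes at 37° C., and colour developed 15 minutes before reading at 525 nm.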

B. gingivalis [8] = assay: as above; assay type: cell-based; conditions: five strains, Table 2
Procedure, shortened: as §6

Treponema denticola [9] = assay: as above; assay type: cell-based; conditions: four strains, Table 2
Procedure, shortened: as §6

Actinomyces israelli [10] = assay: as above; assay type: cell-based; conditions: two strains, Table 2
Procedure, shortened: as §6

B. denticola = assay: as above; assay type: cell-based; conditions: Table 2
Procedure, shortened: as §6

[11] = tested on: Actinobacillus actinomycetemcomitans; assay: as above; assay type: cell-based; conditions: four strains, Table 2
Procedure, shortened: as §6

B. melaninogenicus = assay: as above; assay type: cell-based; conditions: two strains, Table 2
Procedure, shortened: as §6

B. corporis = assay: as above; assay type: cell-based; conditions: Table 2
Procedure, shortened: as §6

Fusobacterium nucleatum [12] = assay: as above; assay type: cell-based; conditions: three strains, Table 2
Procedure, shortened: as §6

N=C(N)NCCC[C@H](NC(=O)c1ccccc1)C(=O)NCC(=O)N[C@@H](Cc1ccccc1)C(=O)N1CCC[C@H]1C(=O)Nc1ccc2ccccc2c1 [BzRGFP, N-benzoyl-arginyl-glycyl-phenylalanyl-proline-β-naphthylamide] (Bz-RGFP-βNA)
+++ (0.4≤OD525 <0.8): hydrolytic activity, absorption at 525 nm (OD525) ([7]; Periodontitis subject 1 (spirochete 45.2 %)) | hydrolytic activity, absorption at 525 nm (OD525) ([7]; Periodontitis subject 2 (spirochete 30.3 %)) | hydrolytic activity, absorption at 525 nm (OD525) ([7]; Periodontitis subject 3 (spirochete 34.6 %)) | hydrolytic activity, absorption at 525 nm (OD525) ([7]; Periodontitis subject 4 (spirochete 21.2 %)) | hydrolytic activity, absorption at 525 nm (OD525) ([7]; Periodontitis subject 5 (spirochete 40.3 %)) | hydrolytic activity, absorption at 525 nm (OD525) ([7]; Periodontitis subject 6 (spirochete 35.1 %))
+ (0.1≤OD525 <0.2): hydrolytic activity, absorption at 525 nm (OD525) ([7]; Gingivitis subject 1 (spirochete 7.3 %)) | hydrolytic activity, absorption at 525 nm (OD525) ([7]; Gingivitis subject 2 (spirochete 16.7 %)) | hydrolytic activity, absorption at 525 nm (OD525) ([7]; Gingivitis subject 6 (spirochete 14.4 %)) | hydrolytic activity, absorption at 525 nm (OD525) ([7]; Healthy subject 2 (spirochete 2.5 %))
- (OD525 <0.1): hydrolytic activity, absorption at 525 nm (OD525) ([7]; Gingivitis subject 4 (spirochete 6.8 %)) | hydrolytic activity, absorption at 525 nm (OD525) ([7]; Gingivitis subject 5 (spirochete 7.3 %)) | hydrolytic activity, absorption at 525 nm (OD525) ([7]; Healthy subject 1 (spirochete 0.1 %)) | hydrolytic activity, absorption at 525 nm (OD525) ([7]; Healthy subject 3 (spirochete 1.1 %)) | hydrolytic activity, absorption at 525 nm (OD525) ([7]; Healthy subject 4 (spirochete 0.6 %)) | hydrolytic activity, absorption at 525 nm (OD525) ([7]; Healthy subject 5 (spirochete 1.3 %))
22.6 ± 5.3 nmol/mL: hydrolytic activity ([1]; Localized juvenile periodontitis subjects)
27.8 ± 7.4 nmol/mL: hydrolytic activity ([1]; Adult Periodontitis subjects)
++ (0.2≤OD525 <0.4): hydrolytic activity, absorption at 525 nm (OD525) ([7]; Gingivitis subject 3 (spirochete 20.5 %))
+++ (release amount≥40 nmol/ml): hydrolytic activity (average amount of released β-naphthylamine) (B. intermedius) | hydrolytic activity (average amount of released β-naphthylamine) (B. denticola) | hydrolytic activity (average amount of released β-naphthylamine) (B. melaninogenicus)
- (release amount<5 nmol/ml): hydrolytic activity (release amount) (Actinomyces israelli [4]) | hydrolytic activity (release amount) [5] | hydrolytic activity (release amount) (Fusobacterium nucleatum [6]) | hydrolytic activity (average amount of released β-naphthylamine) (Actinomyces israelli [10]) | hydrolytic activity (average amount of released β-naphthylamine) [11] | hydrolytic activity (average amount of released β-naphthylamine) (Fusobacterium nucleatum [12])
13.2 ± 5.4 nmol/mL: hydrolytic activity ([1]; Healthy subjects)
++ (20 ≤release amount<40 nmol/ml): hydrolytic activity (release amount) (B. gingivalis [2]) | hydrolytic activity (release amount) (Treponema denticola [3]) | hydrolytic activity (average amount of released β-naphthylamine) (B. gingivalis [8]) | hydrolytic activity (average amount of released β-naphthylamine) (Treponema denticola [9]) | hydrolytic activity (average amount of released β-naphthylamine) (B. corporis)
